Where two headings read alike, the source gives them in different places. Starred links: 1 amine or outer side, 2 acyl side, 3 side chain; linkers in the order of their positions; H or OH if unused. Positions of bridges follow the written chain, without caps; N, C: chain ends. Non-standard residues stand in square brackets, D forms with d. Residues, ends and D or L forms follow the SMILES beside them. *: point of attachment. X4 = CN(C)C(=O)Cn1cc(-c2ccc(C[C@H](N[*:1])C(=O)[*:2])cc2)cn1; Phe(4-(2-MeO-Ph)) = COc1ccccc1-c1ccc(C[C@H](N)C(=O)O)cc1; Phe(3-OCH2COOH) = N[C@@H](Cc1cccc(OCC(=O)O)c1)C(=O)O; Trp(1-Ph) = N[C@@H](Cc1cn(-c2ccccc2)c2ccccc12)C(=O)O; NMePhe(3-Ph) = CN[C@@H](Cc1cccc(-c2ccccc2)c1)C(=O)O; X11 = O=C([C@H](Cc1ccc(-c2ccccc2Cl)cc1)N[*:1])[*:2]; Trp(6-OH) = N[C@@H](Cc1c[nH]c2cc(O)ccc12)C(=O)O; Phe(4-COOH) = N[C@@H](Cc1ccc(C(=O)O)cc1)C(=O)O; Piperazinyl(4-CH2COOH) = O=C(O)CN1CCN(*)CC1; Piperidinyl(4-CH2COOH) = O=C(O)CC1CCN(*)CC1; Gly(decyl) = CCCCCCCCCC[C@H](N)C(=O)O; Gly(N(CH2)3COOH) = O=C(O)CCCNCC(=O)O; X1 = CCCCCCC[C@H](N[*:1])C(=O)[*:2]; NMeF = CN[C@@H](Cc1ccccc1)C(=O)O; NMeE = CN[C@@H](CCC(=O)O)C(=O)O; Cha = N[C@@H](CC1CCCCC1)C(=O)O; X12 = O=C(O)CCC1CCN(*)CC1; NMeA = CN[C@@H](C)C(=O)O; Sar = CNCC(=O)O
Experiments:
[1] = biological target: T1, GDF-11 (Homo sapiens, UniProt O95390); test: HepG2 reporter gene assay, Evaluation Procedure (2): 2-concentrations assay, GDF-11 inhibition; type: cell-based
T1 construct: purchased R&D systems 1958-GD-G8/CF
T1 sequence (O95390 299-407): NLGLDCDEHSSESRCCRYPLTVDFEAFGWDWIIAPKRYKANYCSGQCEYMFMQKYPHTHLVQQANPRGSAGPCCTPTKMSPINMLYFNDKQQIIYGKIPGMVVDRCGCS
Outline: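 HepG2 cells carrying the transfected pGL3(CAGA)12-luc reporter, a pGL3 vector with luciferase placed downstream of 12 CAGA repeats, were stimulated with GDF-11 at a final 10 ng/mL together with test peptide. Blank wells received no GDF-11 and no peptide. Plates were incubated 20 to 24 hours at 37°C with 5% CO2. Luminescence from One-Glo substrate was read to calculate percent inhibition.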

[2] = biological target: T2, Myostatin (Homo sapiens, UniProt O14793); test: HepG2 reporter gene assay, Evaluation Procedure (2): 2-concentrations assay, myostatin inhibition; type: cell-based
T2 construct: active myostatin (also called mature myostatin) is a homodimer consisting of two C-terminal growth factor domains; purchased R&D systems 788-G8/CF
T2 sequence (O14793 267-375): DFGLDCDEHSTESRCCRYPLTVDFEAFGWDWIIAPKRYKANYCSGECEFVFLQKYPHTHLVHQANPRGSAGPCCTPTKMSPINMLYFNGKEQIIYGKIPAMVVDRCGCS
Outline: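 Myostatin inhibition was measured in a luciferase reporter assay using HepG2 cells transfected with a pGL3 vector containing 12 CAGA repeats upstream of luciferase. After 20 to 24 hours with 10 ng/mL myostatin, cells received One-Glo:PBS (1:1) at 100 µL/well, were shaken for 5 min, and 20 µL/well was moved to 384-well plates and read on an Envision 2104.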

[3] = HepG2, first GDF-11 column of Table 7-3/7-4, GDF-11 10 ng/mL, peptide at the lower of the 2 concentrations, read-out: inhibition rate (GDF-11 inhibition assay)
[4] = HepG2, second GDF-11 column of Table 7-3/7-4, GDF-11 10 ng/mL, peptide at the higher of the 2 concentrations, read-out: inhibition rate (GDF-11 inhibition assay)
[5] = Table 7-3/7-4, myostatin 10 ng/mL, peptide at the higher of the 2 concentrations, HepG2, read-out: inhibition rate (myostatin inhibition assay)
[6] = Table 7-3/7-4, myostatin 10 ng/mL, peptide at the lower of the 2 concentrations, HepG2, read-out: inhibition rate (myostatin inhibition assay)
[7] = HepG2, read-out: inhibition rate (GDF-11 inhibition assay), Table 7-3/7-4, GDF-11 10 ng/mL, peptide at the higher of the 2 concentrations
[8] = HepG2, read-out: inhibition rate (GDF-11 inhibition assay), Table 7-3/7-4, GDF-11 10 ng/mL, peptide at the lower of the 2 concentrations
[9] = HepG2, read-out: inhibition rate (myostatin inhibition assay)

inhibition [1, 3] [%]	inhibition [1, 4] [%]	inhibition at 0.1 µM [2, 5] [%]	inhibition at 0.03 µM [2, 6] [%]	SMILES	inhibition [1, 7] [%]	inhibition [1, 8] [%]	inhibition at 0.03 µM [2, 9] [%]	inhibition at 0.1 µM [2, 9] [%]
0	0	100	100	CCCCCCC[C@@H]1NC(=O)[C@H](Cc2ccccc2)N(C)C(=O)[C@H](CCCNC(=N)N)NC(=O)[C@H](Cc2ccc(C(=O)O)cc2)NC(=O)[C@H](Cc2cccc(OCC(=O)O)c2)NC(=O)[C@H](C)N(C)C(=O)[C@H]([C@@H](C)CC)NC(=O)[C@H](Cc2ccccc2)N(C)C(=O)[C@H](Cc2ccc(O)cc2)NC(=O)[C@H](Cc2cn(-c3ccccc3)c3ccccc23)NC(=O)[C@H](C)NC(=O)[C@H](C)NC(=O)CSC[C@H](C(=O)N2CCN(CC(=O)O)CC2)NC(=O)[C@H](Cc2cccc(-c3ccccc3)c2)N(C)C(=O)[C@H](CCC(=O)O)N(C)C1=O [Myostatin_99_v330] ({CH2CO}-AA[Trp(1-Ph)]Y[NMeF]I[NMeA][Phe(3-OCH2COOH)][Phe(4-COOH)]R[NMeF][X1][NMeE][NMePhe(3-Ph)][dC]-{Piperazinyl(4-CH2COOH)}; thioether N-15)	–	–	–	–
0	0	100	100	CCCCCCCCCC[C@@H]1NC(=O)[C@H](Cc2ccccc2)N(C)C(=O)[C@H](CCCNC(=N)N)NC(=O)[C@H](Cc2ccc(C(=O)O)cc2)NC(=O)[C@H](Cc2cccc(OCC(=O)O)c2)NC(=O)[C@H]2CCCN2C(=O)[C@H]([C@@H](C)CC)NC(=O)[C@H](Cc2ccccc2)N(C)C(=O)[C@H](Cc2ccc(O)cc2)NC(=O)[C@H](Cc2cn(-c3ccccc3)c3ccccc23)NC(=O)[C@H](C)NC(=O)[C@H](C)NC(=O)CSC[C@H](C(=O)N2CCN(CC(=O)O)CC2)NC(=O)[C@H](Cc2cccc(-c3ccccc3)c2)N(C)C(=O)[C@H](CCC(=O)O)N(C)C1=O [Myostatin_99_v331] ({CH2CO}-AA[Trp(1-Ph)]Y[NMeF]I[dP][Phe(3-OCH2COOH)][Phe(4-COOH)]R[NMeF][Gly(decyl)][NMeE][NMePhe(3-Ph)][dC]-{Piperazinyl(4-CH2COOH)}; thioether N-15)	–	–	–	–
0	0	100	100	CCCCCCCCCC[C@@H]1NC(=O)[C@H](CC2CCCCC2)NC(=O)[C@H](CCCNC(=N)N)NC(=O)[C@H](Cc2ccc(C(=O)O)cc2)NC(=O)[C@H](Cc2cccc(OCC(=O)O)c2)NC(=O)[C@H](C)N(C)C(=O)[C@H]([C@@H](C)CC)NC(=O)[C@H](Cc2ccccc2)N(C)C(=O)[C@H](Cc2ccc(O)cc2)NC(=O)[C@H](Cc2cn(-c3ccccc3)c3ccccc23)NC(=O)[C@H](C)NC(=O)[C@H](C)NC(=O)CSC[C@H](C(=O)N2CCN(CC(=O)O)CC2)NC(=O)[C@H](Cc2cccc(-c3ccccc3)c2)N(C)C(=O)[C@H](CCC(=O)O)N(C)C1=O [Myostatin_99_v332] ({CH2CO}-AA[Trp(1-Ph)]Y[NMeF]I[NMeA][Phe(3-OCH2COOH)][Phe(4-COOH)]R[Cha][Gly(decyl)][NMeE][NMePhe(3-Ph)][dC]-{Piperazinyl(4-CH2COOH)}; thioether N-15)	–	–	–	–

More lines, now with the values behind:

SMILES	inhibition [1, 3] [%]	inhibition [1, 4] [%]	inhibition at 0.1 µM [2, 5] [%]	inhibition at 0.03 µM [2, 6] [%]	inhibition [1, 7] [%]	inhibition [1, 8] [%]	inhibition at 0.03 µM [2, 9] [%]	inhibition at 0.1 µM [2, 9] [%]
CCCCCCC[C@@H]1NC(=O)[C@H](Cc2ccccc2)N(C)C(=O)[C@H](CCCNC(=N)N)NC(=O)[C@H](Cc2ccc(C(=O)O)cc2)NC(=O)[C@H](Cc2cccc(OCC(=O)O)c2)NC(=O)CN(C)C(=O)[C@H]([C@@H](C)CC)NC(=O)[C@H](Cc2ccccc2)N(C)C(=O)[C@H](Cc2ccc(O)cc2)NC(=O)[C@H](Cc2c[nH]c3ccccc23)NC(=O)[C@H](C)NC(=O)[C@H](C)NC(=O)CSC[C@H](C(=O)N2CCC(CC(=O)O)CC2)NC(=O)[C@H](Cc2ccccc2)N(C)C(=O)[C@H](C)N(C)C1=O [Myostatin_99_v313] ({CH2CO}-AAWY[NMeF]I[Sar][Phe(3-OCH2COOH)][Phe(4-COOH)]R[NMeF][X1][NMeA][NMeF][dC]-{Piperidinyl(4-CH2COOH)}; thioether N-15)	12	40	100	100	–	–	–	–
CCCCCCC[C@@H]1NC(=O)[C@H](Cc2ccccc2)N(C)C(=O)[C@H](CCCNC(=N)N)NC(=O)[C@H](Cc2ccc(C(=O)O)cc2)NC(=O)[C@H](Cc2cccc(OCC(=O)O)c2)NC(=O)CN(C)C(=O)[C@H]([C@@H](C)CC)NC(=O)[C@H](Cc2ccccc2)N(C)C(=O)[C@H](Cc2ccc(O)cc2)NC(=O)[C@H](Cc2c[nH]c3ccccc23)NC(=O)[C@H](C)NC(=O)[C@H](C)NC(=O)CSC[C@H](C(=O)N2CCC(CCC(=O)O)CC2)NC(=O)[C@H](Cc2ccccc2)N(C)C(=O)[C@H](C)N(C)C1=O [Myostatin_99_v314] ({CH2CO}-AAWY[NMeF]I[Sar][Phe(3-OCH2COOH)][Phe(4-COOH)]R[NMeF][X1][NMeA][NMeF][dC]-X12; thioether N-15)	2	51	100	100	–	–	–	–
CCCCCCC[C@@H]1NC(=O)[C@H](Cc2ccccc2)N(C)C(=O)[C@H](CCCNC(=N)N)NC(=O)[C@H](Cc2ccc(C(=O)O)cc2)NC(=O)[C@H](Cc2cccc(OCC(=O)O)c2)NC(=O)[C@H](C)N(C)C(=O)[C@H]([C@@H](C)CC)NC(=O)[C@H](Cc2ccccc2)N(C)C(=O)[C@H](Cc2ccc(O)cc2)NC(=O)[C@H](Cc2c[nH]c3cc(O)ccc23)NC(=O)[C@H](C)NC(=O)CN(CCCC(=O)O)C(=O)CSC[C@H](C(=O)O)NC(=O)[C@H](Cc2ccccc2)N(C)C(=O)[C@H](C)N(C)C1=O [Myostatin_99_v318] ({CH2CO}-[Gly(N(CH2)3COOH)]A[Trp(6-OH)]Y[NMeF]I[NMeA][Phe(3-OCH2COOH)][Phe(4-COOH)]R[NMeF][X1][NMeA][NMeF][dC]-OH; thioether N-15)	0	19	100	100	–	–	–	–
CCCCCCC[C@@H]1NC(=O)[C@H](Cc2ccccc2)N(C)C(=O)[C@H](CCCNC(=N)N)NC(=O)[C@H](Cc2ccc(C(=O)O)cc2)NC(=O)[C@H](Cc2ccc(-c3ccccc3Cl)cc2)NC(=O)[C@H](C)N(C)C(=O)[C@H]([C@@H](C)CC)NC(=O)[C@H](Cc2ccccc2)N(C)C(=O)[C@H](Cc2ccc(O)cc2)NC(=O)[C@H](Cc2ccc(-c3cnn(CC(=O)N(C)C)c3)cc2)NC(=O)[C@H](C)NC(=O)CN(CCCC(=O)O)C(=O)CSC[C@H](C(=O)O)NC(=O)[C@H](Cc2ccccc2)N(C)C(=O)[C@H](CCC(=O)O)N(C)C1=O [Myostatin_99_v321] ({CH2CO}-[Gly(N(CH2)3COOH)]A[X4]Y[NMeF]I[NMeA][X11][Phe(4-COOH)]R[NMeF][X1][NMeE][NMeF][dC]-OH; thioether N-15)	–	–	–	–	0	0	58	91
CCCCCCC[C@@H]1NC(=O)[C@H](Cc2ccccc2)N(C)C(=O)[C@H](CCCNC(=N)N)NC(=O)[C@H](Cc2ccc(C(=O)O)cc2)NC(=O)[C@H](Cc2ccc(-c3ccccc3OC)cc2)NC(=O)[C@H](C)N(C)C(=O)[C@H]([C@@H](C)CC)NC(=O)[C@H](Cc2ccccc2)N(C)C(=O)[C@H](Cc2ccc(O)cc2)NC(=O)[C@H](Cc2c[nH]c3cc(O)ccc23)NC(=O)[C@H](C)NC(=O)CN(CCCC(=O)O)C(=O)CSC[C@H](C(=O)O)NC(=O)[C@H](Cc2ccccc2)N(C)C(=O)[C@H](CCC(=O)O)N(C)C1=O [Myostatin_99_v323] ({CH2CO}-[Gly(N(CH2)3COOH)]A[Trp(6-OH)]Y[NMeF]I[NMeA][Phe(4-(2-MeO-Ph))][Phe(4-COOH)]R[NMeF][X1][NMeE][NMeF][dC]-OH; thioether N-15)	–	–	–	–	0	0	97	99
CCCCCCC[C@@H]1NC(=O)[C@H](Cc2ccccc2)N(C)C(=O)[C@H](CCCNC(=N)N)NC(=O)[C@H](Cc2ccc(C(=O)O)cc2)NC(=O)[C@H](Cc2ccc(-c3ccccc3Cl)cc2)NC(=O)CN(C)C(=O)[C@H]([C@@H](C)CC)NC(=O)[C@H](Cc2ccccc2)N(C)C(=O)[C@H](Cc2ccc(O)cc2)NC(=O)[C@H](Cc2c[nH]c3cc(O)ccc23)NC(=O)[C@H](C)NC(=O)[C@H](C)NC(=O)CSC[C@H](C(=O)N2CCN(CC(=O)O)CC2)NC(=O)[C@H](Cc2ccccc2)N(C)C(=O)[C@H](CCC(=O)O)N(C)C1=O [Myostatin_99_v325] ({CH2CO}-AA[Trp(6-OH)]Y[NMeF]I[Sar][X11][Phe(4-COOH)]R[NMeF][X1][NMeE][NMeF][dC]-{Piperazinyl(4-CH2COOH)}; thioether N-15)	49	86	100	100	–	–	–	–

Source: patent publication EP4786487A1, “PEPTIDE” (Peptidream Inc, priority 2023, dated 2025)
